According to patent US12053506B2, “Romo1-derived antimicrobial peptides and variants thereof” (priority 2019, dated 2024):
≈ marks a conversion by molar mass, not a printed value. Non-standard residues stand in square brackets, D forms with d. Residues, ends and D or L forms follow the SMILES beside them. No end group written: not given here.

Experiments:
mouse red blood cells = assay type: cell-based
Protocol: Red blood cells were diluted with PBS, centrifuged 3 times at 900 g for 10 minutes, and washed. 100 μl of the diluted red blood cell solution (10% v/v PBS) was dispensed into each well of a 96-well microplate, and KU-5878, KU-5878-K4, KU-5878-K4-D, melittin, magainin 2 or daptomycin was added to each well which was then filled with PBS to 200 μl, followed by reaction by incubation at 37° C. for 1 hour. Then, the supernatant of the reaction solution was separated, and the absorbance at a wavelength of 550 nm was measured using a spectrophotometer. As control, PBS and 0.1% Triton X-100 (Triton X-100) solution were used.
Based on the results of measurement of the absorbance, the degree of red blood cell destruction was calculated according to Equation 1 below, and the results of the calculation are shown in FIG. 6. The % intact RBC=100(%)−[(absorbance of peptide-treated red blood cell solution−absorbance of PBS-treated red blood cell solution)/(absorbance of Triton X-100-treated red blood cell solution−absorbance of PBS-treated red blood cell solution)×100(%)] [Equation 1]

[1] = tested on: Staphylococcus aureus (ATCC 29213); assay type: cell-based; conditions: for MBC Staphylococcus aureus: Tables 11-15, no unit printed
How it was run: (§1)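 Bacteria grown in 3% TSB at 37° C, diluted in 10 mM sodium phosphate/1% TSB to 1×10^5 CFU/ml in wells, exposed to peptides (0–300 μg/ml) for 1 h at 37° C. Mixtures plated on TS agar for 18 h at 37° C; MBC is the lowest concentration giving no colonies.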

[2] = tested on: Pseudomonas aeruginosa (ATCC 27853); assay type: cell-based; conditions: for MBC Pseudomonas aeruginosa: Tables 11-15, no unit printed
How it was run: as §1

CRPA = test: MBC, evaluation of antibacterial activities of KU-5878 variants; assay type: cell-based; conditions: Tables 11-15, no unit printed
[3] = tested on: methicillin-resistant Staphylococcus aureus (ATCC 33591); conditions: for MBC value (μg/ml) against methicillin-resistant Staphylococcus aureus: ATCC 33591, 4 h; for MBC MRSA: Tables 11-15, no unit printed
[4] = tested on: multidrug-resistant Pseudomonas aeruginosa; conditions: 4 h
Protocol: First, each of Pseudomonas aeruginosa (ATCC 27853) and Staphylococcus aureus (ATCC 29213) was cultured in 3% (w/v) TSB (Tryptic Soy Broth) liquid medium at 37° C. and 200 rpm for 4 hours, and then further cultured under the same conditions for 3 hours to a concentration of 5×10^6 CFU/ml. Strain solutions were prepared by diluting each of the further cultured strains with SP (sodium phosphate; 10 mM sodium phosphate, 1% TSB) buffer to a final concentration of 2×10^5 CFU/ml.
Then, each peptide at varying concentrations (0 μg/ml to 300 μg/ml) was dispensed into each well of a 96-well microplate, and 100 μl (1×10^5 CFU/ml) of each of the prepared strain solutions was added thereto, mixed therewith, and allowed to react with the peptide in an incubator at 37° C. for 1 hour.
In addition, 30 g/L of TS (tryptic soy) and 15 g/L of agar were dissolved in distilled water and sterilized, and then 25 ml of the solution was poured onto a 100 mm round plate and solidified at room temperature for one day or more, thereby preparing a TS agar plate. 10 μl of each reaction solution of the peptide and the strain was plated on the TS agar plate at a constant size, and incubated in an incubator at 37° C. for 18 hours, and then colony formation on the plate was checked.
Specifically, each type of bacteria was cultured in 3% (w/v) TSB (Tryptic Soy Broth) liquid medium at 37° C. and 200 rpm for 4 hours, and then further cultured under the same conditions for 3 hours to a concentration of 5×10^6 CFU/ml. Strain solutions were prepared by diluting each of the […] of 2×10^5 CFU/ml.
Then, the KU-5878 peptide at varying concentrations (0 μg/ml to 300 μg/ml) was dispensed into each well of a 96-well microplate, and 100 μl (1×10^5 CFU/ml) of each of the prepared strain solutions was added thereto, mixed therewith, and allowed to react with the peptide in an incubator at 37° C. for 1 hour.
In addition, 10 μl of each reaction solution of the peptide and the strain was plated on the TS agar plate at a constant size, and incubated in an incubator at 37° C. for 18 hours, and then colony formation on the plate was checked.
Meanwhile, the multidrug-resistant Pseudomonas aeruginosa, multidrug-resistant Acinetobacter and multidrug-resistant Klebsiella in Table 2 below were bacteria isolated from patients at Korea University Anam Hospital. […] Then, these bacteria were used in the experiment.

Compound	hemolysis of red blood cells (mouse red blood cells)	MBC (μg/ml) value against Staphylococcus aureus ([1]; ATCC 29213, 1 h) [µg/mL]	MBC (μg/ml) value against Pseudomonas aeruginosa ([2]; ATCC 27853, 1 h) [µg/mL]	MBC CRPA (CRPA) [µg/mL]	MBC value (μg/ml) against Staphylococcus aureus ([1]; ATCC 29213, 1 h) [µg/mL]	MBC Staphylococcus aureus [1] [µg/mL]	MBC value (μg/ml) against Pseudomonas aeruginosa ([2]; ATCC 27853, 1 h) [µg/mL]	MBC Pseudomonas aeruginosa [2] [µg/mL]	MBC value (μg/ml) against methicillin-resistant Staphylococcus aureus [3] [µg/mL]	MBC MRSA [3] [µg/mL]	MBC value (μg/ml) against multidrug-resistant Pseudomonas aeruginosa [4] [µg/mL]
CC[C@H](C)[C@H](NC(=O)CNC(=O)[C@H](CCSC)NC(=O)CNC(=O)[C@@H](NC(=O)[C@H](C)NC(=O)[C@H](CCSC)NC(=O)[C@H](Cc1ccccc1)NC(=O)[C@@H](NC(=O)CNC(=O)[C@H](Cc1ccccc1)NC(=O)[C@@H](CCCCN)NC(=O)CNC(=O)CNC(=O)[C@@H](CCCCN)NC(=O)[C@@H](CCCCN)NC(=O)[C@H](CCSC)NC(=O)[C@H](CCSC)NC(=O)[C@@H](CCCCN)NC(=O)[C@@H](N)CCCCN)[C@@H](C)O)[C@@H](C)CC)C(=O)N[C@@H](CCCNC(=N)N)C(=O)O [KU-5878-K4-D] (H-K[dK]MM[dK][dK]GG[dK]FGTFMAIGMGIR-OH)	little hemolysis of red blood cells	3 (≈ 1.29 µM)	3 (≈ 1.29 µM)								
ATMMQSGGTFGTFMAIGMGIR [KU-5878-K58A]				> 300	>300	> 300	>300	> 300	>300	> 300	>300
KKMMKKGGTFGTFMAIGMGIR [KU-5878-K3]				4	4	4	4	4	5	5	4
KKMMKSGGTFGTFMAIGMGIR [KU-5878-K2]				6	8	8	8	8	8	8	8
KKMMQSGGTFGTFMAIGMGIR [KU-5878-T59K]				50	40	40	50	50	45	50	45
KRMMQSGGTFGTFMAIGMGIR [KU-5878-T59R]				30	25	25	30	30	30	30	35
KTMMKSGGTFGTFMAIGMGIR [KU-5878-Q62K]				90	80	80	90	90	85	90	90
KTMMQKGGTFGTFMAIGMGIR [KU-5878-S63K]				50	50	50	60	60	60	50	60
KTMMQSGGKFGTFMAIGMGIR [KU-5878-T66K]				70	60	60	80	80	70	80	80
KTMMQSGGTFGKFMAIGMGIR [KU-5878-T69K]				150	130	130	140	140	150	150	150
KTMMQSGGTFGTFMAIGMGIA [KU-5878-R78A]				> 300	>300	> 300	>300	> 300	>300	> 300	>300
KTMMQSGGTFGTFMAIGMGIK [KU-5878-R78K]				> 300	>300	> 300	>300	> 300	>300	> 300	>300
RTMMQSGGTFGTFMAIGMGIR [KU-5878-K58R]				120	120	120	120	120	130	120	120
